Consider 18 compounds from ChEMBL document CHEMBL1136922, “Antitumor agents. 266. Design, synthesis, and biological evaluation of novel 2-(furan-2-yl)naphthalen-1-ol derivatives as potent and selective antibreast cancer agents” (2009).

Converted amounts (≈) assume the structure as drawn. Some results are limits rather than exact numbers.

Holding throughout (format): functional
The subject of one test is SK-BR-3. Description: Cytotoxicity against estrogen receptor deficient human SKBR3 cells overexpressing human epidermal growth factor receptor 2 after 72 hrs by SRB assay. As to conditions: SK-BR-3, 72 h, read-out: ED50 (the source's name).
The subject of the next test is MCF7. As to the kind of experiment: Cytotoxicity against human MCF7 cells expressing estrogen receptor after 72 hrs by SRB assay. As to conditions: MCF7, 72 h, read-out: ED50 (the source's name). (In general: The SRB assay estimates cell density from bound dye.)
The next test has as its system MDA-MB-231. As to the kind of experiment: Cytotoxicity against estrogen receptor deficient human MDA-MB-231 cells after 72 hrs by SRB assay. As to conditions: MDA-MB-231, 72 h, read-out: ED50 (the source's name).
A short description of test [1]: Cytotoxicity against vincristine-resistant human KBVIN cells after 72 hrs by SRB assay. As to conditions: read-out: ED50 (the source's name).
The subject of another test is KB. Description: Cytotoxicity against human KB cells after 72 hrs by SRB assay. As to conditions: read-out: ED50 (the source's name).
For another test, the system named is DU-145. Description: Cytotoxicity against human DU145 cells after 72 hrs by SRB assay. As to conditions: DU-145, 72 h, read-out: ED50 (the source's name).
Test [2] concerns ZR-75-1. As to the kind of experiment: Cytotoxicity against human ZR-75-1 cells expressing estrogen receptor and HER2 after 72 hrs by SRB assay. As to conditions: ZR-75-1, 72 h, read-out: ED50 (the source's name).
For test [3], the system named is ZR-75-1. As to the kind of experiment: Selectivity ratio of ED50 for estrogen receptor deficient human SKBR3 cells overexpressing HER2 to ED50 for human ZR-75-1 cells expressing estrogen receptor and HER2.
Test [4] has as its system ZR-75-1. Description: Selectivity ratio of ED50 for human MCF7 cells expressing estrogen receptor to ED50 for human ZR-75-1 cells expressing estrogen receptor and HER2.
Another test relates to A549. As to the kind of experiment: Cytotoxicity against human A549 cells after 72 hrs by SRB assay. As to conditions: A549, 72 h, read-out: ED50 (the source's name).

With `Cc1coc2c1c(=O)oc1c3ccccc3ccc21`, the EC50 stood at 1 µg/mL (≈ 4 µM) in the test with SK-BR-3 and 4 µg/mL (≈ 16 µM) in the test with MCF7.
Turning to `COc1cccc2c(O)c(-c3occ(C)c3C(=O)O)ccc12`, the EC50 was more than 10 µg/mL in the test with MDA-MB-231; 8.9 µg/mL (≈ 29.8 µM) in test [1]; 9.7 µg/mL (≈ 32.5 µM) in the test with KB; 3.5 µg/mL (≈ 11.7 µM) in the test with SK-BR-3; 8.2 µg/mL (≈ 27.5 µM) in the test with DU-145; 0.6 µg/mL (≈ 2.01 µM) with ZR-75-1 [2]. In addition, the EC50 with MCF7 was more than 20 µg/mL; in the test on A549, 10.1 µg/mL (≈ 33.9 µM). Moreover, the “Ratio ED50” value with ZR-75-1 [3] was found to be 6; in the test with ZR-75-1 [4], 33.
Regarding `CCc1cccc2c1ccc1c3occ(C)c3c(=O)oc21`, the EC50 in the test on MDA-MB-231 is more than 10 µg/mL; in [1] it was 13.2 µg/mL (≈ 47.4 µM); with KB, 13.1 µg/mL (≈ 47.1 µM); in the test with SK-BR-3, 0.1 µg/mL (≈ 0.359 µM); in the test with DU-145, 15.9 µg/mL (≈ 57.1 µM); in the test on ZR-75-1 [2] it was 0.1 µg/mL (≈ 0.359 µM). The results for the EC50 with MCF7 and with A549 were 0.2 µg/mL (≈ 0.719 µM) and 10.6 µg/mL (≈ 38.1 µM), respectively. Moreover, in the test with ZR-75-1 [4], the “Ratio ED50” value turned out to be 2.
As for `CCc1coc(-c2ccc3c(CC)cccc3c2O)c1C(=O)O`, the EC50 with SK-BR-3 was 5.4 µg/mL (≈ 17.4 µM); with MCF7 it was 5.1 µg/mL (≈ 16.4 µM).
On to `CCc1cccc2c(OC)c(-c3occ(C)c3C(=O)OC)ccc12`, for which the EC50 with MDA-MB-231 was 2.3 µg/mL (≈ 7.09 µM); in test [1] it was 1.3 µg/mL (≈ 4.01 µM); with KB, 1.7 µg/mL (≈ 5.24 µM); with SK-BR-3 it was 1.2 µg/mL (≈ 3.7 µM); in the test on DU-145, 2.2 µg/mL (≈ 6.78 µM); in the test with ZR-75-1 [2] it was 1.3 µg/mL (≈ 4.01 µM). The figures for the EC50 in the test with MCF7 and in the test with A549 were 2.5 µg/mL (≈ 7.71 µM) and 1.5 µg/mL (≈ 4.62 µM), respectively.
Turning to `Cc1coc(-c2ccc3ccccc3c2O)c1C(=O)O`, the EC50 stood at 7 µg/mL (≈ 26.1 µM) in the test with SK-BR-3 and 6 µg/mL (≈ 22.4 µM) in the test with MCF7.
`CCc1cccc2c(O)c(-c3oc(C)c(C)c3C(=O)O)ccc12`: the EC50 in the test on SK-BR-3 stood at 10.4 µg/mL (≈ 33.5 µM); in the test on MCF7 it was 8.5 µg/mL (≈ 27.4 µM).
On to `CCc1cccc2c(O)c(-c3occ(C)c3C(=O)O)ccc12`, for which the EC50 is more than 10 µg/mL in the test with MDA-MB-231; 7 µg/mL (≈ 23.6 µM) in test [1]; 9.1 µg/mL (≈ 30.7 µM) in the test with KB; 1 µg/mL (≈ 3.37 µM) with SK-BR-3; 8.7 µg/mL (≈ 29.4 µM) in the test on DU-145; 0.3 µg/mL (≈ 1.01 µM) in the test on ZR-75-1 [2]. The results for the EC50 in the test on MCF7 and in the test on A549 were 3.3 µg/mL (≈ 11.1 µM) and 10.6 µg/mL (≈ 35.8 µM), respectively. The “Ratio ED50” value in the test with ZR-75-1 [3] came out at 3; in the test with ZR-75-1 [4] it was 10.
On to `Cc1cccc2c(OC(=O)c3ccoc3)cccc12`, for which the EC50 in the test on SK-BR-3 and in the test on MCF7 was more than 20 µg/mL throughout.
In the case of `CCc1cccc2c(O)c(-c3occ(C)c3CO)ccc12`, the EC50 with SK-BR-3 was found to be 12.8 µg/mL (≈ 45.3 µM); with MCF7, 12 µg/mL (≈ 42.5 µM).
As to `COC(=O)c1c(C)coc1-c1ccc2ccccc2c1OC`, the EC50 in the test on SK-BR-3 was 6.5 µg/mL (≈ 21.9 µM); with MCF7, 8.5 µg/mL (≈ 28.7 µM).
As to `COc1c(-c2occ(C)c2C(=O)O)ccc2ccccc12`, the EC50 in the test with SK-BR-3 was found to be 16.7 µg/mL (≈ 59.2 µM); with MCF7, 18 µg/mL (≈ 63.8 µM).
As for `C#CCOc1cc(=O)oc2c1ccc1ccccc12`, the figures for the EC50 with SK-BR-3 and with MCF7 were 16 µg/mL (≈ 63.9 µM) and 20 µg/mL (≈ 79.9 µM), respectively.
Turning to `Cc1coc2c1c(=O)oc1cc(OC(C)C)ccc12`, the EC50 with SK-BR-3 stood at 10.8 µg/mL (≈ 41.8 µM); in the test with MCF7 it was 12 µg/mL (≈ 46.5 µM).
For `CC/C(=C(\c1ccccc1)c1ccc(OCCN(C)C)cc1)c1ccccc1` [TAMOXIFEN], in that order: 5 µg/mL (≈ 13.5 µM) and 5 µg/mL (≈ 13.5 µM).
`CCc1cccc2c(OC)c(-c3occ(C)c3C(=O)O)ccc12`: the values for the EC50 in the test on SK-BR-3 and with MCF7 were 8.5 µg/mL (≈ 27.4 µM) and 4.3 µg/mL (≈ 13.9 µM), respectively.
As for `CCOc1cccc2c(O)c(-c3occ(C)c3C(=O)O)ccc12`, the EC50 was found to be 6 µg/mL (≈ 19.2 µM) in the test with SK-BR-3 and 7.5 µg/mL (≈ 24 µM) in the test with MCF7.
Consider `Cc1coc(-c2ccc3ccccc3c2O)c1CO`, for which the EC50 with SK-BR-3 turned out to be 9.5 µg/mL (≈ 37.4 µM); with MCF7 it was 7 µg/mL (≈ 27.5 µM).
